Read-outs that look alike come from different tables or passages of the source.
Tests used:
[1] = target: T1, TAS2R14 (Homo sapiens, UniProt Q9NYV8); test: Fluo-4 calcium mobilization, HEK293-TAS2R14-G16gust44 cells; format: cell-based
T1 construct: full-length cDNA, stably expressed in HEK293 cells with chimeric G16gust44 (G alpha 16 fused with 44 amino acids of gustducin)
T1 sequence (Q9NYV8 1-317): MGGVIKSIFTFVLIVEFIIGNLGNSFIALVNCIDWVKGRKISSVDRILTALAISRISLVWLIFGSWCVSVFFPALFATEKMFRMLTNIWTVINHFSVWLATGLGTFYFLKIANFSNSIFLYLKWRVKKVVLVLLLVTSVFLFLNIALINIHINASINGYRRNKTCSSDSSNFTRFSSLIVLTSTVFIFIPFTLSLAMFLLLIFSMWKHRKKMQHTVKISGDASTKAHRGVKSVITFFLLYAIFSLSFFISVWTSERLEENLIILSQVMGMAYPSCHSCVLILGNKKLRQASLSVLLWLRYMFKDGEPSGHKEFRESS

[2] = target: T1, TAS2R14; test: Fluo-4 calcium mobilization, antagonist mode, HEK293-TAS2R14-G16gust44 cells; format: cell-based; details: in the presence of 10.0 μM aristolochic acid A as agonist, 37 °C, 2.5 mM probenecid in loading buffer

Question: How did the EC50 ([1]; read-out: EC50) turn out when C[C@H]1O[C@@H](O[C@H]2CC[C@@]3(C)[C@@H](CC[C@]4(C)[C@@H]3C=CC3=C5CC(C)(C)CC[C@]5(CO)C(O)C[C@]34C)[C@]2(C)CO)[C@H](O)[C@@H](O[C@@H]2O[C@H](CO)[C@@H](O)[C@H](O)[C@H]2O)[C@H]1O (stereo partly drawn) [SSb, Saikosaponin b] was run?
Answer: The EC50 was 4.9 µM.

Question: With COc1cccc2c1cc([N+](=O)[O-])c1c(C(=O)O)cc3c(c12)OCO3 [AAA, aristolochic acid A] as the molecule, how does the EC50 [1] read?
Answer: Its EC50 is 2 µM.

Question: How did the IC50 [2] turn out when sulfamoyl-benzoic acid [SBA] was run?
Answer: Its IC50 is 18.5 µM.
